# From article PMC8945686, “Anticancer Effects with Molecular Docking Confirmation of Newly Synthesized Isatin Sulfonamide Molecular Hybrid Derivatives against Hepatic Cancer Cell Lines” (Biomedicines, 2022)
# “And” between values parts separate entries of the source, which are not always exact repeats. Equal values may be shown once. Marks after values point to notes of the source that are not given here.
# What was measured:
# Type in all cases: cell-based, human
# malonaldehyde (MDA) = test: MDA level in HepG2 cell lysate (TBA method); details: HepG2 treated at IC50, 48 h
# Method: As previously described, with little modification, HepG2 cells were cultured in T25 flask until they reached 30% confluency. […] After treatment, cells were washed by PBS, trypsinized and centrifuged at 10,000 rpm. The formed pellets were washed twice with PBS and lysed in 1 mL ice-cold radio immunoprecipitation assay (RIPA) lysis buffer (50 mM Tris-HCl, pH 8.0, 150 mM NaCl, 1% Triton X-100, 0.5% sodium deoxycholate, 0.1% sodium dodecyl sulfate) and kept on ice for 20 min. Then, the mixture was centrifuged at 15,000 rpm for 15 min to remove any cell debris. The cell lysate was aliquoted and stored at −80 °C for determination of protein using Pierce BCA Protein Assay Kit (Thermo Fisher Scientific, Waltham/Boston, USA) according to manufacturer’s recommendations and determination of other biochemical parameters including EGFR, urokinase Plasminogen Activator (uPA), B-Cell Lymphoma-2 (Bcl-2), heparanase, and oxidative stress markers (glutathione; GSH and malonaldehyde; MDA).
# Levels of MDA, the marker of lipid peroxidation, were measured by thiobarbituric acid (TBA) method. TBA reacts with MDA in an acidic medium at temperature of 95 °C for 30 min to form colored thiobarbituric acid reactive (TBAR) product, the absorbance of which was measured at 534 nm. The MDA kit was purchased from Biodiagnostics, Cairo, Egypt.
# [1] = In vitro safety/cell viability MTT assay on normal RPE1 cells; details: human, RPE1 cells (noncancerous), normal RPE1 cells, MTT
# RPE1 cells = test: as above; details: RPE1, MTT, in words
# Huh7 cells = test: MTT cytotoxicity assay on Huh7 cells; details: for % Death Rate at 100 p.p.m (μg/mL) Huh7: 48 h; for IC50: Homo sapiens, Huh-7, 48 h
# Method: MTT-based cell viability assay was carried out to evaluate the antiproliferation potential of the target compounds on HCC cell lines (HepG2 and Huh7). The half maximal inhibitory concentration (IC50) values were calculated against DMSO non-treated HepG2 cells (negative control) and Dox-treated HepG2 cells (positive control). The assay was conducted using 3-(4, 5-di-MethylThiazol-2-yl)-2,5-diphenyl Tetrazolium bromide (MTT) to test cell viability, according to the method described by Mosmann with minor changes. The yellow MTT is reduced in the viable cells to purple formazan. The insoluble formazan is solubilized by DMSO to colored solution measured spectrophotometrically. Briefly, cells were seeded in a 96-well plate at density of 1 × 10^4 cells/well for 24 h in 5% CO2 incubator at 37 °C to allow their adherence. […] After incubation, 20 μL of a 5 mg/mL MTT solution were mixed with the contents of each well, and the plate was incubated for another 4 h. Then, the medium was suctioned, and the wells were washed with PBS. After 2 h of drying, 200 μL of DMSO was added to each well. The plate was set on a shaker to dissolve the formazan crystals. Then, the absorbance was measured spectrophotometrically at 570 nm with a reference wavelength of 630 nm using ELX800 UV universal microplate reader (BioTek Instruments Inc., VT, Santa Clara, CA, USA).
# All experiment conditions were tested in three replicates. The % cell viability was calculated from the following equation: (mean absorbance of treated sample/mean absorbance of negative control sample) × 100. The % death rate = 100 -% cell viability, and the inhibitory concentration of 50% (IC50) was measured from the exponential curve of viability against concentration (dose–response curve).
# HepG2 cells [2] = test: Annexin V/FITC-PI apoptosis assay; details: for %Cell Death Early Apoptosis / %Cell Death Late Apoptosis / %Cell Death Total Apoptosis / Necrosis: HepG2, IC50 of the compound, 24 h (method says 48 h)
# Method: Annexin V/PI double staining kit (eBiosciencesDx) was used to detect apoptotic activity of the selected isatin sulfonamide derivatives. The Annexin V corresponding signal provides a very sensitive marker for cellular apoptosis, while PI was used to detect necrotic or late apoptotic cells, identified by the loss of plasma integrity and loss of nuclear membranes.
# Briefly, 1 × 10^5 cells/mL of HepG2 cells were seeded into a 6-well plate and incubated at 37 °C, 5% CO2, overnight. […] After time elapsed, trypsinization of cells was carried out. Washing was done by PBS once, followed by fixation using 70% ethanol. Fixed cells were stored at 4 °C for 2 h, then centrifuged at 500× g for 5 min. Again, cells were washed with PBS prior to staining. An amount of 200 μL of the staining solution (annexin V- fluorescein 5-isothiocyanate (FITC) and PI in binding buffer (10 mM HEPES, 140 mM NaCl, and 2.5 mM CaCl2 at pH 7.4)) were added to the cell suspension and incubated at 37 °C for 20 to 30 min in dark and analyzed with a fluorescence-activated cell sorter (FACS) (BD FACSCalibur, BD Biosciences, California, USA). Data were analyzed using ModFit LT v2.0 (Verity Software House, Topsham, Maine, USA).
# These plots were divided into four regions corresponding to: • (1) Viable cells, which are negative to both probes (PI/FITC −/−), • (2) Apoptotic cells, which are PI negative and Annexin positive (PI/FITC −/+), • (3) Late apoptotic cells, which are both PI and Annexin positive (PI/FITC +/+), • (4) Necrotic cells, which are PI positive and Annexin negative (PI/FITC+/−).
# HepG2 cells [3] = test: Cell cycle analysis by flow cytometry (PI staining); details: for %Cell Cycle Arrest/Phase %G0-G1 / %Cell Cycle Arrest/Phase %G2-M / %Cell Cycle Arrest/Phase %S / %Cell Cycle Arrest/Phase %pre-G1: HepG2, 5 µM, 48 h; for G2-M arrest, fold higher compared to the negative control: HepG2, negative control 7.1%
# Method: In 6-well plate, HepG2 (1 × 10^5 cells per well) were treated with either (0.1% DMSO) vehicle or 5 μM of 3a, 4b, and 4c compounds. After 48 h incubation, cells were harvested and fixed for 12 h using ice-cold 70% ethanol at 4 °C. Ethanol was removed and cells were washed by PBS and incubated for 30 min at 37 °C in 0.5 mL of PBS containing 1 mg/mL RNase. Then, cells were stained for 30 min with PI in the dark and the DNA content was determined using flow cytometer.
SMILES,MDA level in cell lysate (malonaldehyde (MDA)),CC50 at 48 h [1],"viability at 48 h, 100 p.p.m (μg/mL) [1]",Effect towards the noncancerous cell line (RPE1) (RPE1 cells),% Death Rate at 100 p.p.m (μg/mL) Huh7 (Huh7 cells),IC50 (Huh7 cells),%Cell Death Early Apoptosis (HepG2 cells [2]),%Cell Death Late Apoptosis (HepG2 cells [2]),%Cell Death Total Apoptosis (HepG2 cells [2]),Necrosis (HepG2 cells [2]),"Total apoptosis, fold greater than negative control HepG2 cells (HepG2 cells [2]; HepG2, negative control 1.47%)",%Cell Cycle Arrest/Phase %G0-G1 (HepG2 cells [3]),%Cell Cycle Arrest/Phase %G2-M (HepG2 cells [3]),%Cell Cycle Arrest/Phase %S (HepG2 cells [3]),%Cell Cycle Arrest/Phase %pre-G1 (HepG2 cells [3]),"G2-M arrest, fold higher compared to the negative control (HepG2 cells [3])",MDA level in cell lysate (malonaldehyde (MDA); listed as Dox),MDA level in cell lysate (malonaldehyde (MDA); listed as Positive)
"Cc1ccc(C(=O)CC2(O)C(=O)Nc3ccc(S(=O)(=O)N4CCCCC4)cc32)cc1 (stereo not drawn) [Compound 3a, 3-hydroxy-3-(2-oxo-2-(p-tolyl)ethyl)-5-(piperidin-1-ylsulfonyl)indolin-2-one]","2.0 ± 0.5 µmol/mg protein and 2.0 ± 0.5 ^a*^,b* µmol/mg protein",> 100 µM,74%,non-cytotoxic effect,100 * %,40 ± 2.2 µM,3.56%,29.58%,46.3% and 46.29%,13.15%,31.49 fold,31.57%,44.85%,23.58%,46.29%,6.32 fold,,
"CC(=O)Nc1ccc(C(=O)C=C2C(=O)Nc3ccc(S(=O)(=O)N4CCCCC4)cc32)cc1 [Compound 4b, N-(4-(2-(2-oxo-5-(piperidin-1-ylsulfonyl)indolin-3-ylidene)acetyl)phenyl)acetamide]","3.7 ± 0.4 µmol/mg protein and 3.7 ± 0.4 ^a*^,b* µmol/mg protein",> 100 µM,66.4%,non-cytotoxic effect,76.00 * %,53 ± 3 µM,6.12%,12.61%,28.1% and 28.14%,9.41%,,41.25%,5.49%,53.26%,28.14%,,,
"CC(=O)Nc1cccc(C(=O)C=C2C(=O)Nc3ccc(S(=O)(=O)N4CCCCC4)cc32)c1 [Compound 4c, N-(3-(2-(2-oxo-5-(piperidin-1-ylsulfonyl)indolin-3-ylidene)acetyl)phenyl)acetamide]",14.5 ± 1.4 µmol/mg protein,> 100 µM,80.7%,non-cytotoxic effect,75.60 * %,35 ± 1.9 µM,2.88%,18.08%,32.0% and 32.02%,11.06%,,36.44%,37.62%,25.94%,32.02%,5.30 fold,,
"COc1cccc2c1C(=O)c1c(O)c3c(c(O)c1C2=O)C[C@@](O)(C(=O)CO)C[C@@H]3O[C@H]1C[C@H](N)[C@H](O)[C@H](C)O1 [Doxorubicin, reference compound]",,,,,100%,11.6 ± 0.9 µM,1.85%,26.27%,42.38%,14.26%,,29.74%,39%,31.26%,42.38%,,18.5 ± 1.5 µmol/mg protein,18.5 ± 1.5 ^a* µmol/mg protein
